# Results published in article PMC5216056 (Nature Communications, 2017).
# Assays:
# Rat recombinant TRPV4 = molecular target: T1, Rat recombinant TRPV4 (Rattus norvegicus, UniProt Q9ERZ8); experiment: cell-based; format: cell-based
# T1 construct: expressed in transfected cells; host or cells: HEK293 (TRPV4-HEK-293, gift from HB Bradshaw, Indiana University)
# [1] = test system: AEA cellular uptake in U937 cells; experiment: cells; format: cell-based, human; details: 10 µM
# Rat recombinant TRPM8 = molecular target: T2, Rat recombinant TRPM8 (Rattus norvegicus, UniProt Q8R455); experiment: TRP channel [Ca2+]i assay; format: cell-based; details: agonist
# T2 construct: expressed in transfected cells; host or cells: HEK293 (TRPM8-HEK-293, gift from Mario van der Stelt)
# T2 sequence (Q8R455 whole entry): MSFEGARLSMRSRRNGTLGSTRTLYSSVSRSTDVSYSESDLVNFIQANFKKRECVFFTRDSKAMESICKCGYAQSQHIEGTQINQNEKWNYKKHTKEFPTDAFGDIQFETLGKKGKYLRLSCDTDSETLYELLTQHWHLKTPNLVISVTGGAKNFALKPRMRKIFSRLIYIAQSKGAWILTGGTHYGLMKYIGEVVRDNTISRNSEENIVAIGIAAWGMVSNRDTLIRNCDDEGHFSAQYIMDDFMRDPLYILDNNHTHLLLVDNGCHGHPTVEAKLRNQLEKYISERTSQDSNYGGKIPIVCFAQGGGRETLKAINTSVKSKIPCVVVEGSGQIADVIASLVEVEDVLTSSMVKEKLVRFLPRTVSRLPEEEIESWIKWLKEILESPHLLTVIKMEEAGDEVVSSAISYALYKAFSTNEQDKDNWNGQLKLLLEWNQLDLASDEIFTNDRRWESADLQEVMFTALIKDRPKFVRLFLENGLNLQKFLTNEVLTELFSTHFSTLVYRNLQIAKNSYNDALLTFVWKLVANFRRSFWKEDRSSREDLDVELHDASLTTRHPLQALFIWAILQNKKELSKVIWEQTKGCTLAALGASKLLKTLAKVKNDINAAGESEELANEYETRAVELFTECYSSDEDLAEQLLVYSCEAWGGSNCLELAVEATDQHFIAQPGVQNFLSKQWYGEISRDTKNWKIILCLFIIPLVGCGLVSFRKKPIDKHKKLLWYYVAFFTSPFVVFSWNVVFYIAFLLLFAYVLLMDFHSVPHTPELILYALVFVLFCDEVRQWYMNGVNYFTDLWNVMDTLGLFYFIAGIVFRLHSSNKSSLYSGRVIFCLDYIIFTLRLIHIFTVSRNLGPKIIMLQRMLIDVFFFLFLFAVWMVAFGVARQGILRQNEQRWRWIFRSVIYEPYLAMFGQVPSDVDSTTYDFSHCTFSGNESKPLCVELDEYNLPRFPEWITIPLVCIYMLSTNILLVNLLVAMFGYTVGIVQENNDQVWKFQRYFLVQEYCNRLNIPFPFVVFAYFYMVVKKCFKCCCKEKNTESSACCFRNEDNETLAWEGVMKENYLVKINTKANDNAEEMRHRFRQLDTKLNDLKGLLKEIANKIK
# Rat recombinant TRPV3 = molecular target: T3, Rat recombinant TRPV3 (Rattus norvegicus, UniProt Q4QYD9); experiment: cell-based; format: cell-based
# T3 construct: expressed in transfected cells; host or cells: HEK293 (TRPV3-HEK-293, gift from HB Bradshaw, Indiana University)
# T3 sequence (Q4QYD9 1-791): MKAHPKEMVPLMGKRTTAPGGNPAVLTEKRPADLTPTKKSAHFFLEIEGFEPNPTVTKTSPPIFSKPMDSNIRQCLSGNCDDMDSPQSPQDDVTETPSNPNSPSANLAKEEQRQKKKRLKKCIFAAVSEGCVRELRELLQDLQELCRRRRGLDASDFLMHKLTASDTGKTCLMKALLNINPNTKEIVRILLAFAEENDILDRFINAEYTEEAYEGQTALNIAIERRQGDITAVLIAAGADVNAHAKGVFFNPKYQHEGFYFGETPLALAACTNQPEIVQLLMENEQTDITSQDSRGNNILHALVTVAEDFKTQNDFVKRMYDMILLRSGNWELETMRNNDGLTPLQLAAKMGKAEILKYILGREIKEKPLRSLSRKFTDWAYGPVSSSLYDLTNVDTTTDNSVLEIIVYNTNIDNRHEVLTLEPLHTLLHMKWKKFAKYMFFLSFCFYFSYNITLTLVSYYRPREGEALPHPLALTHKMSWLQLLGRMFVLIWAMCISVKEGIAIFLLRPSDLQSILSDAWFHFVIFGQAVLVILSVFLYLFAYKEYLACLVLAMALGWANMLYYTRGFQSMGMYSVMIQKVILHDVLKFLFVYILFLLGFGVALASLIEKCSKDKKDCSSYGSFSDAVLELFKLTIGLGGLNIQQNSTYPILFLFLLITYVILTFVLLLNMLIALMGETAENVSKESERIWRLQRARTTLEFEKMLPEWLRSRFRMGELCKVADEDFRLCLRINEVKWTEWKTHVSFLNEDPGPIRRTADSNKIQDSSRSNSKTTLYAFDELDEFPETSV
# MAGL = molecular target: T4, MAGL (Homo sapiens, UniProt Q99685); experiment: Biochemical MAGL activity assay; details: 10 µM
# T4 construct: expressed in transfected cells; host or cells: HEK293T (transient), membrane preparation
# T4 sequence (Q99685 1-303): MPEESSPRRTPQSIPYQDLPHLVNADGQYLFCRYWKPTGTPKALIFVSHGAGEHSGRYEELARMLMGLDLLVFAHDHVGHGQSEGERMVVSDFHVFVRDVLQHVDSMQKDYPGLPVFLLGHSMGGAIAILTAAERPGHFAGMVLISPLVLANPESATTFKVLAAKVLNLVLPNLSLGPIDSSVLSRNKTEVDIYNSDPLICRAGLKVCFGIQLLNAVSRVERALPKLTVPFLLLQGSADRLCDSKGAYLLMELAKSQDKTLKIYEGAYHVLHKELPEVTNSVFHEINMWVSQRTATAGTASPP
# Protocol: (§1) Cell culture and membrane preparation were performed as previously described. HEK293T cells (source: Dutch Cancer Institute) were grown in DMEM with stable glutamine and phenolred (PAA), 10% New Born Calf serum, penicillin and streptomycin. Cells were passaged every 2–3 days by resuspending in medium and seeding them to appropriate confluence. Membranes were prepared from transiently transfected HEK293T cells. One day prior to transfection 10^7 cells were seeded in a 15 cm petri dish. Cells were transfected by the addition of a 3:1 mixture of polyethyleneimine (60 μg) and plasmid DNA (20 μg) in 2 ml serum-free medium. The medium was refreshed after 24 h, and after 72 h the cells were harvested by suspending them in 20 ml medium. The suspension was centrifuged for 10 min at 1000, rpm, and the supernatant was removed. The cell pellet was stored at −80 °C until use. Cell pellets were thawed on ice and suspended in lysis buffer A (20 mM HEPES, 2 mM DTT, 0.25 M sucrose, 1 mM MgCl2, […] Benzonase). The suspension was homogenized by polytrone (3 × 7 s) and incubated for 30 min on ice. The suspension was subjected to ultracentrifugation (100,000 × g, 30 min, 4 °C, Beckman Coulter, Type Ti70 rotor) to yield the cytosolic fraction in the supernatant and the membrane fraction as a pellet. The pellet was resuspended in lysis buffer B (20 mM HEPES, 2 mM DTT). The protein concentration was determined with Quick Start Bradford assay (Biorad). The protein fractions were diluted to a total protein concentration of 1 mg ml^−1 and stored in small aliquots at −80 °C until use.
# Percentage of inhibition of reference ligands was determined in comparison with an untreated control. […] Fluorescence was measured in 5 min intervals for 60 min.
# human NAPE-PLD = molecular target: T5, human NAPE-PLD (Homo sapiens, UniProt Q6IQ20); experiment: NAPE-PLD inhibition; format: biochemical; details: 10 µM
# T5 construct: Full length human cDNA NAPE-PLD was obtained from Natsuo Ueda; expressed in transfected cells; host or cells: HEK293T (transient), membrane fraction
# T5 sequence (Q6IQ20 whole entry): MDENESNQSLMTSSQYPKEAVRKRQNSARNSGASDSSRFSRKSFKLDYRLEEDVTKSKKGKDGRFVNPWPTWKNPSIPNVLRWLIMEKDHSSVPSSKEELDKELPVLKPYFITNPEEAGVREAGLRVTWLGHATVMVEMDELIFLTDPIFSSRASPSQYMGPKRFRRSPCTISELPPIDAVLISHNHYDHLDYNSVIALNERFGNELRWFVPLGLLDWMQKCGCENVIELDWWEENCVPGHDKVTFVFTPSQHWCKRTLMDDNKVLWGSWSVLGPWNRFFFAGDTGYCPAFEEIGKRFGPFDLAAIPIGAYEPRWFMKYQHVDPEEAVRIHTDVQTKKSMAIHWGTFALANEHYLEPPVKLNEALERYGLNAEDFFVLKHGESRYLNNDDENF
# Protocol: Full length human cDNA NAPE-PLD was obtained from Natsuo Ueda[58] and cloned into mammalian expression vector pcDNA3.1, containing a C-terminal Flag-tag and genes for ampicillin and neomycin resistance. All plasmids were grown in XL-10 Z-competent cells and prepped (Maxi Prep, Qiagen). Sequence analysis for the confirmation of the sequences was performed at the Leiden Genome Technology Centre.
# HEK293T cells (source: Dutch Cancer Institute) were cultured at 37 °C and 7% CO2 in DMEM with glutamax, penicillin (100 μg ml^−1), streptomycin (100 μg ml^−1) and 10% New Born Calf Serum iron supplemented (Hyclone SH30072.03). Cells were passaged twice a week to appropriate confluence. Twenty-four hours before transfection 10^7 cells were seeded on a 15 cm dish. Two hours before transfection, the medium was refreshed. Transfection is performed with PEI in a ratio of 3:1 with human NAPE-PLD or Mock pcDNA3.1Neo, 20 μg per dish. Medium is refreshed after 24 h and cells are harvested after 72 h. Cell suspensions are centrifuged at 1,000g for 10 min, supernatant removed and pellets frozen at −80 °C until further use.
# Cell pellets are re-suspended in lysis buffer 1: 20 mM Hepes, 2 mM DTT, 0.25 M sucrose, 1 mM MgCl2, 2.5 U ml^−1 benzonase and incubated 30 min on ice. The cytosolic fraction (supernatant) is separated from the membranes by ultra-centrifugation (32,000 rpm for 30 min 100,000g). The pellet is resuspended in buffer 2: 20 mM Hepes, 2 mM DTT (membrane fraction). All samples are stored at −80 °C. Enzyme concentrations are determined using a Bradford assay.
# The membrane protein fraction from transient overexpression of NAPE-PLD in HEK293T cells was diluted to 0.4 mg ml^−1 in assay buffer: 50 mM Tris-HCl (pH 7.5), 0.02% Triton X-100, 150 mM NaCl (ref. [60]). […] Relevant concentrations of compounds are prepared in DMSO. The assay is performed in a dark Greiner 96-well plate, end volume 100 μl. The compound or DMSO is incubated with membrane protein lysate (final concentration 0.04 mg ml^−1) for 30 min at 37 °C. A sample without membrane protein lysate is incorporated for background subtraction. Then, substrate is added (final concentration 1 μM) and the measurement is started immediately on a TECAN infinite M1000 pro at 37 °C (excitation 485 nm, emission 535 nm), scanning every 2 min for 1 h.
# hDAGL-α = molecular target: T6, hDAGL-α (Homo sapiens, UniProt Q9Y4D2); experiment: Biochemical DAGLα activity assay; details: 10 µM
# T6 construct: expressed in transfected cells; host or cells: HEK293T (transient), membrane preparation
# T6 sequence (Q9Y4D2 1-1042): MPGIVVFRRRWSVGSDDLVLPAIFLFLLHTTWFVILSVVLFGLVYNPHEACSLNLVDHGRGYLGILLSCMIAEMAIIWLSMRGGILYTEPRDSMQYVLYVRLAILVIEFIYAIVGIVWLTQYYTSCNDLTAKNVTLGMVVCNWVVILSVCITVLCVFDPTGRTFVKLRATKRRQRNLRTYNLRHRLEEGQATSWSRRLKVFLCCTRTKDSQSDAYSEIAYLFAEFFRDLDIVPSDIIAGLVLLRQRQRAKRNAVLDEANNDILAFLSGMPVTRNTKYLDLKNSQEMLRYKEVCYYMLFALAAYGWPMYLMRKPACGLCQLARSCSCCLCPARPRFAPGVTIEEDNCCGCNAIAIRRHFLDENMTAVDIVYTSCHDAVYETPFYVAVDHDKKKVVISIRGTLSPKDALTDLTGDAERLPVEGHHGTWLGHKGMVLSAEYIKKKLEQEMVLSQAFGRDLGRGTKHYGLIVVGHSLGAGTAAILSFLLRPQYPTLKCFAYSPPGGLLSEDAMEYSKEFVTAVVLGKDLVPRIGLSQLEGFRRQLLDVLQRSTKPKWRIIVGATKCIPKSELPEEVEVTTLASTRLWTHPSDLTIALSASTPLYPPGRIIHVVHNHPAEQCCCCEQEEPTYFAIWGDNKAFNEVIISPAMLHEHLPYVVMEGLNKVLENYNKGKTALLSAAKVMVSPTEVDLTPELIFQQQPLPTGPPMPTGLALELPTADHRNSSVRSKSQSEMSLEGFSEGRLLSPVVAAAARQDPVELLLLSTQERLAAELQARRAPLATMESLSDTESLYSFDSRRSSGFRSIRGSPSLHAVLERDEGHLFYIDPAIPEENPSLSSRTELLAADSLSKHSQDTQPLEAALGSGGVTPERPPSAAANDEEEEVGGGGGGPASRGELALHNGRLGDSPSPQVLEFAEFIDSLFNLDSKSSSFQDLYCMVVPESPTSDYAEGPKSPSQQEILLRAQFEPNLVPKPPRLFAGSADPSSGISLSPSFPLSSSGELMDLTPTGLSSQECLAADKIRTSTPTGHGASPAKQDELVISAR
# Protocol: as §1
# hDAGL-α activity was measured by the extent of the hydrolysis of para-nitrophenylbutyrate (PNP-butyrate) by membrane preparations from HEK293T cells (source: Dutch Cancer Institute) transiently transfected with hDAGL-α (ref. [43]). Percentage of inhibition of reference ligands was determined in comparison with an untreated control. Reactions were performed in 50 mM pH 7.2 HEPES buffer with 0.05 μg μl^−1 final protein concentration hDAGL-α transfected protein.
# Rat recombinant TRPV2 = molecular target: T7, Rat recombinant TRPV2 (Rattus norvegicus, UniProt Q9WUD2); experiment: cell-based; format: cell-based
# T7 construct: expressed in transfected cells; host or cells: HEK293 (plasmid a gift from HB Bradshaw, Indiana University)
# T7 sequence (Q9WUD2 1-761): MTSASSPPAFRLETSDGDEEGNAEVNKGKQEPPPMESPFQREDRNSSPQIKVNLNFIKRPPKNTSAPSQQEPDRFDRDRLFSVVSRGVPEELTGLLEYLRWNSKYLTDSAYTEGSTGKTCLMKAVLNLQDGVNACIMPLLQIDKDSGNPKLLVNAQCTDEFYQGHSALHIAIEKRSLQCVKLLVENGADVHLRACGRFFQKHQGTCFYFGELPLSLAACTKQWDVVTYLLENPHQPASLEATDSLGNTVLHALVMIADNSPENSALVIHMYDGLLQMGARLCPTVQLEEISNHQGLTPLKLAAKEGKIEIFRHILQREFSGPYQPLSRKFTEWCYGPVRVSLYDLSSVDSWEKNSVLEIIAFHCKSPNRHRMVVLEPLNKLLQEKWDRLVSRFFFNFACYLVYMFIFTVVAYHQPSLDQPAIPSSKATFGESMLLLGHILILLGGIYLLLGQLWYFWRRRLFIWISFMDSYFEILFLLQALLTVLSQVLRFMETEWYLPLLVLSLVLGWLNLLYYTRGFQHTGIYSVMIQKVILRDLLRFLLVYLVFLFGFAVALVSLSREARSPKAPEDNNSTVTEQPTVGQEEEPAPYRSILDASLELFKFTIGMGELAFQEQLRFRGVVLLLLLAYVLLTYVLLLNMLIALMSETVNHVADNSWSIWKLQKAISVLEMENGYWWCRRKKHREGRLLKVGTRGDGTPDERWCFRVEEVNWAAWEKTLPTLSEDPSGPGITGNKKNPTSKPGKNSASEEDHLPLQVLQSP
# T1 sequence (Q9ERZ8 whole entry): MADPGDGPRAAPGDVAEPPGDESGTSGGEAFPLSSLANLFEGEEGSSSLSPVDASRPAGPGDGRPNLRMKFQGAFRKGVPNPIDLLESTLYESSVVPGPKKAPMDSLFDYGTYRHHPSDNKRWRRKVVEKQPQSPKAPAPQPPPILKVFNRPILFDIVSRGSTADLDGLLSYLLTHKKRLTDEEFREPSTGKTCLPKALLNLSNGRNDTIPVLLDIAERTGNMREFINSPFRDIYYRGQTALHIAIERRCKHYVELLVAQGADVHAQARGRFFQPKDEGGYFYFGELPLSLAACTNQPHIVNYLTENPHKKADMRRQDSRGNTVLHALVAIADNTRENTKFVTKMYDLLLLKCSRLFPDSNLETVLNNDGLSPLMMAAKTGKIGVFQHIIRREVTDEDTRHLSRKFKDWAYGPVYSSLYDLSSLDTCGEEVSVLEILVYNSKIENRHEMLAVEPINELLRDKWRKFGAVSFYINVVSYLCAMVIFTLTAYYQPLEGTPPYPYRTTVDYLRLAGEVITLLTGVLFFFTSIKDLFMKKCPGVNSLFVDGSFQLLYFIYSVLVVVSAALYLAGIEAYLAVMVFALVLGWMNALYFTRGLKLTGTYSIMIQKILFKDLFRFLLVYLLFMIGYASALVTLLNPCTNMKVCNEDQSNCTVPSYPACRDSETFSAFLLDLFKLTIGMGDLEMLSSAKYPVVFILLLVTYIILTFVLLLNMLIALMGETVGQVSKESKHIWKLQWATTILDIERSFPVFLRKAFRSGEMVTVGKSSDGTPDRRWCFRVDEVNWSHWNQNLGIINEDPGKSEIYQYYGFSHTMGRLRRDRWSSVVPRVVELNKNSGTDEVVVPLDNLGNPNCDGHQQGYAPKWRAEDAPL
compound,measurement,setting,value
"CCCCCCCCCC(=O)O[C@@H]1[C@@H](C)[C@@]2(O)[C@@H](C=C(CO)C[C@@]3(O)C(=O)C(C)=C[C@@H]23)[C@@H]2C(C)(C)[C@]12OC(=O)CCCCCCCCC [4α-PDD, 4α-phorbol 12,13-didecanoate]",TRPV4 Efficacy (% ionomycin 4μM),Rat recombinant TRPV4,51.9±1.7%
same,EC50,Rat recombinant TRPV4; read-out: TRPV4 Potency EC50,460 ± 70 nM
CCCCCCCC/C=C\CCCCCCCC(=O)N[C@@H](CO)Cc1ccc(O)cc1 [OMDM-2],"AEA cellular uptake inhibition, positive controls",[1],59.7±6.6%
CCCCC/C=C\C/C=C\C/C=C\C/C=C\CCCC(=O)NCc1ccoc1 [UCM707],"AEA cellular uptake inhibition, positive controls",[1],71.5±8.0%
O=C1NC(c2cccc([N+](=O)[O-])c2)=CCN1c1ccccc1O [icilin],TRPM8 efficacy,Rat recombinant TRPM8,75.1±1.1
same,EC50,Rat recombinant TRPM8; read-out: TRPM8 potency EC50,110 ± 10 nM
Cc1ccc(C(C)C)c(O)c1 [thymol],TRPV3 Efficacy (% ionomycin 4μM),Rat recombinant TRPV3,34.7±0.2%
same,EC50,Rat recombinant TRPV3; read-out: TRPV3 Potency EC50,84100 ± 1600 nM
"CCCCCc1cc(O)c2c(c1)OC(C)(C)[C@@H]1CCC(C)=C[C@@H]21 [Δ9-THC, Δ^9-tetrahydrocannabinol]",MAGL % inhibition at 10 µM ± SD,MAGL,7 ± 17%
same,NAPE-PLD % inhibition at 10 µM ± SD,human NAPE-PLD,0 ± 12%
same,DAGL % inhibition at 10 µM ± SD,hDAGL-α,-9 ± 12%
lysophosphatidylcholine [LPC],TRPV2 Efficacy (% ionomycin 4μM),Rat recombinant TRPV2,91.7±0.5%
same,EC50,Rat recombinant TRPV2; read-out: TRPV2 Potency EC50,3400 ± 20 nM
